{
  "source": "patent US8080246B2",
  "about": "“Colony stimulating factor 1 receptor (CSF1R) extracellular domain fusion molecules” (Five Prime Therapeutics, Inc., priority 2008, dated 2011)",
  "key": {"EAE mouse model": {"test_system": "EAE mouse model", "conditions": "for reduction in the EAE clinical score: relative to vehicle", "protocol": "The CSF1R ECD fusion molecules were also tested for their ability to inhibit MS disease pathology in a mouse model of MS. These experiments used the mouse experimental autoimmune encephalomyelitis (EAE) model, which is widely used as a model of MS in humans. See, for example, Steinman and Zamvil, TRENDS in Immunology, 26(11):565-571 (2005). In the EAE model, disease progression and associated pathology may be measured according to the following EAE clinical score: no clinical disease (Score: 0); tail flaccidity (Score: 1); hind limb weakness (Score: 2); hind limb paralysis (Score: 3); forelimb paralysis or loss of ability to right from supine (stand up from a supine position) (Score: 4); and moribund (near death) or dead (Score: 5). […] The mCSF1R.506-Fc fusion protein (m506) was tested to determine whether it could decrease the EAE clinical scores or body weight loss. The mCSF1R.506-Fc fusion protein (SEQ ID NO.:8) was expressed and purified from the culture media of CHO cells stably transfected with the mCSF1R.506-Fc/pDEF38 plasmid vector as described in Example 2.\nFor the EAE mouse model experiments, 60 female C57BL/6 mice, age […], were divided into five groups: • Group 1: Vehicle control (Vehicle) (phosphate buffered saline, PBS), 100 μl, i.p., 3 times a week for up to 7 weeks; • Group 2: Methotrexate positive control (MTX), 10 mg/kg, i.v., q3d for up to 7 weeks; • Group 3: mCSF1R.506-Fc, 1 mg/kg, i.p., 3 times a week for up to 7 weeks; • Group 4: mCSF1R.506-Fc, 10 mg/kg, i.p., 3 times a week for up to 7 weeks; • Group 5: mCSF1R.506-Fc, 20 mg/kg, i.p., 3 times a week for up to 7 weeks.\nEach group consisted of 12 mice. EAE induction was performed according to the following protocol: 300 ug of myelin oligodendrocyte glycoprotein (MOG)35-55 peptide was dissolved in 100 ul PBS and emulsified in an equal volume of complete Freund's adjuvant (CFA) containing 5 mg/ml Mycobacterium tuberculosis H37 RA. The emulsion (200 ul) was injected subcutaneously into the flank of the mice on days 0 and 7. Pertussis toxin (500 ng in 500 ul of PBS; List Biological Labs) was administered intravenously into each tail vein on days 0 and 2.\nThe MTX (10 mg/kg) was administered intravenously once every 3 days (q3d) for up to seven weeks starting on day 0; mCSF1R.506-Fc (1 mg/kg, 10 mg/kg, or 20 mg/kg), or vehicle (PBS) was administered intraperitoneally to the EAE mice in a 0.2 ml volume three times per week for 45 days, starting on day 0. The EAE clinical scores were measured prior to each dosing of PBS, MTX, or mCSF1R.506-Fc, using the above-mentioned scoring system. Body weights were recorded on day 0 before treatment was initiated, and were then measured at least twice per week including the day the study was terminated for seven weeks (on days 0, 2, 6, 8, 10, 13, 16, 17, 20, 22, 24, 27, 29, 31, 34, 36, 38, 41, 43, and 45)."}, "CIA mouse model [1]": {"test_system": "CIA mouse model", "experiment": "Mouse collagen-induced arthritis (CIA) model, Example 9", "assay_type": "in vivo", "conditions": "relative to vehicle, p<0.01"}, "CIA mouse model [2]": {"test_system": "CIA mouse model", "experiment": "Mouse collagen-induced arthritis (CIA) model, Example 13 (clinical score, histology, serum PYD)", "assay_type": "in vivo", "conditions": "for clinical arthritis scores: FIG. 9; for serum pyridinoline (PYD) levels: vs vehicle control, ELISA, FIG. 12"}, "human primary monocytes": {"test_system": "human primary monocytes", "experiment": "Human monocyte viability (CellTiter-Glo ATP)", "assay_type": "cell-based", "conditions": "four days incubation; ATP levels; protein from 293-6E cells; read-out: IC50, inhibition of human monocyte viability", "protocol": "Primary monocytes were isolated from human peripheral blood mononuclear cells (PBMC) through size sedimentation over Percoll columns as described (de Almeida et al., Mem Inst Oswaldo Cruz 95(2):221-223, (2000)). In this experiment, 1×10^4 freshly isolated human primary monocytes per well of a 96-well plate were incubated with the hCSF1R.506-GS-Fc or hCSF1R.512-GS-Fc fusion protein (0.01-120 nM) and the cells were incubated at 37° C. with 5% CO2. After four days, ATP levels in the cells were determined using the CellTiter-Glo Luminescent Cell Viability Assay Kit (Promega, Cat. No. G7571), according to the manufacturer's instructions, as a measurement of cell viability."}, "CSF1": {"target": "T1, CSF1 (Homo sapiens, UniProt P09603)", "T1 sequence (P09603 33-554)": "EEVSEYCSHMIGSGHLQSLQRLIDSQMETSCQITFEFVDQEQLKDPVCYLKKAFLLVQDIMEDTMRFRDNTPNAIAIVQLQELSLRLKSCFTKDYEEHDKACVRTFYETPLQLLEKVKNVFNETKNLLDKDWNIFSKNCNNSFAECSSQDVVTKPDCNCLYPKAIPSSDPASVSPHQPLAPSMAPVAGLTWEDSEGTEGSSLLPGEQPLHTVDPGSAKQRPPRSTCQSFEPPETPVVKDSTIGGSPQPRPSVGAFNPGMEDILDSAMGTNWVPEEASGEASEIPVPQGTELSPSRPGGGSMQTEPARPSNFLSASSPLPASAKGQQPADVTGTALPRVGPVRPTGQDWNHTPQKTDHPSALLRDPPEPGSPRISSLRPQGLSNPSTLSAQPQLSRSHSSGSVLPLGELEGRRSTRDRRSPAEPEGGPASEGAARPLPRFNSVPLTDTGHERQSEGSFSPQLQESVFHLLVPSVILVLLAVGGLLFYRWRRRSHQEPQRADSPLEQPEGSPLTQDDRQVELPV", "experiment": "Biacore SPR CSF1 ligand binding affinity and kinetics", "conditions": "proteins expressed in CHO cells; Biacore (Table 4)", "protocol": "The CSF1 and IL34 ligand binding affinity and kinetics of the hCSF1R.506-GS-Fc and hCSF1R.512-GS-Fc fusion proteins were determined using Biacore® X surface plasmon resonance (SPR) technology (Uppsala, Sweden). CSF1 and IL34 are the only two ligands known to interact with the CSF1R ECD. The CSF1 and IL34 binding experiments were carried out using methodology similar to that described in Lin et al., Science 320:807-811, (2008).\nIn order to compare the relative ligand binding affinity of hCSF1R.506 (SEQ ID NO:2) and hCSF1R.506-Fc (SEQ ID NO:6) proteins expressed in CHO cells to CSF1, a Biacore® assay was used."}, "[3]": {"test_system": "CD115+ GR1- monocytes in the spleen", "experiment": "Depletion of CD115+ GR1- monocytes from spleen (flow cytometry)", "assay_type": "in vivo, mouse", "conditions": "DBA1 mice, 20 mg/kg i.p. 3 times per week, two weeks", "protocol": "Male DBA1 mice were administered i.p. 3 times per week with saline or mCSF1R.506-Fc protein (SEQ ID NO:34) at 20 mg/kg. After two weeks of treatment, spleens were harvested for analysis of monocytes by flow cytometry as described (Liu et al., Science 324: 392 (2009)). Cells were stained at 4° C. in PBS with 5% (vol/vol) FBS. An LSR II (Becton Dickinson) was used for multiparameter flow cytometry of stained cell suspensions, followed by analysis with FlowJo software (TreeStar)."}, "[4]": {"test_system": "peripheral blood monocytes (F4/80+, CD11b+)", "experiment": "Depletion of mouse monocytes from peripheral blood after minicircle DNA tail vein transfection", "assay_type": "in vivo", "conditions": "C57BL/6 mouse; 30 ug minicircle DNA by hydrodynamic tail vein transfection; about three weeks; vs saline", "protocol": "The mCSF1R.506-GS-Fc fusion protein (SEQ ID NO.:34) was expressed in vivo to determine whether it could deplete mouse monocytes from peripheral blood as a measure of in vivo biological activity. For these experiments, the minicircle DNA vector (mCSF1R.506-GS-Fc/p2xC31MasterSfi) containing the polynucleotides encoding mCSF1R.506-GS-Fc described in Example 1 was employed. For these experiments, 30 ug of CSF1R.506-GS-Fc-encoding minicircle DNA was injected into a C57BL/6 mouse tail vein by hydrodynamic tail vein transfection (TVT) as described (Ozaki et al., J Immunol, 173(9):5361-5371 (2004)). Saline was injected as a negative control. Approximately three weeks after the tail vein injection, peripheral blood cells were isolated and monocyte levels were determined using FACS analysis with anti-CD11b and anti-F4/80 antibodies according to the manufacturer's instruction (BD Biosciences) to detect monocyte marker-positive cells (F4/80^+, CD11b^+)."}},
  "note": "Like-named read-outs stand apart in the source and are kept apart here.",
  "data": [
    {"compound": "CN(Cc1cnc2nc(N)nc(N)c2n1)c1ccc(C(=O)N[C@@H](CCC(=O)O)C(=O)O)cc1", "note": "[MTX, Methotrexate, reference compound]", "values": [
      {"measurement": "reduction in the EAE clinical score", "setting": "EAE mouse model; 10 mg/kg i.v. q3d, p<0.001", "result": 95, "unit": "%"}
    ]},
    {"compound": "ENBREL® [reference compound]", "values": [
      {"measurement": "inhibition of CIA arthritis score", "setting": "CIA mouse model [1]; 10 mg/kg i.p. twice weekly for 34 days", "result": "about 40%"},
      {"measurement": "clinical arthritis scores", "setting": "CIA mouse model [2]; 10 mg/kg i.p. daily", "result": "inhibited clinical scores"},
      {"measurement": "serum pyridinoline (PYD) levels", "setting": "CIA mouse model [2]; CIA mice", "result": "not significant statistically"}
    ]},
    {"compound": "hCSF1R.506-GS-Fc: Human CSF1R ECD lacking the six C-terminal residues fused to GS-Fc; SEQ ID NO. 32", "values": [
      {"measurement": "IC50", "setting": "human primary monocytes", "result": 8.8, "unit": "nM"}
    ]},
    {"compound": "hCSF1R.506: human CSF1R ECD corresponding to SEQ ID NO.:2 (amino acids 1-506), without fusion partner", "values": [
      {"measurement": "Kd", "setting": "CSF1", "result": 28.9, "unit": "nM"},
      {"measurement": "ka, binding to CSF1", "setting": "CSF1", "result": "2.80E+04", "unit": "l/Ms"},
      {"measurement": "kd, binding to CSF1", "setting": "CSF1", "result": 0.000809, "unit": "s⁻¹"}
    ]},
    {"compound": "hCSF1R.512-GS-Fc: Full-length human CSF1R ECD fused to GS-Fc; SEQ ID NO. 31", "values": [
      {"measurement": "IC50", "setting": "human primary monocytes", "result": 17.5, "unit": "nM"}
    ]},
    {"compound": "mCSF1R.506-Fc: Mouse CSF1R ECD lacking the five C-terminal residues fused to an Fc; SEQ ID NO. 8", "values": [
      {"measurement": "reduction in the EAE clinical score", "setting": "EAE mouse model; 1 mg/kg i.p. 3 times a week, p<0.001", "result": 55, "unit": "%"},
      {"measurement": "reduction in the EAE clinical score", "setting": "EAE mouse model; 10 mg/kg i.p. 3 times a week, p<0.01", "result": 40, "unit": "%"},
      {"measurement": "reduction in the EAE clinical score", "setting": "EAE mouse model; 20 mg/kg i.p. 3 times a week, p<0.001", "result": 78, "unit": "%"},
      {"measurement": "higher body weight relative to vehicle control", "setting": "EAE mouse model; EAE mice, average of three doses (1, 10, 20 mg/kg), p<0.01-0.001", "result": 8, "unit": "%"},
      {"measurement": "reduction of CIA arthritis score", "setting": "CIA mouse model [1]; 20 mg/kg i.p. daily for 34 days", "result": "about 75%"},
      {"measurement": "inflammation, pannus formation, cartilage damage, bone resorption scores", "setting": "CIA mouse model [2]; 2 mg/kg, 6 mg/kg and 20 mg/kg, compared to vehicle treated mice, FIG. 11", "result": "significantly decreased inflammation, pannus formation, cartilage damage, and bone resorption"},
      {"measurement": "clinical arthritis scores", "setting": "CIA mouse model [2]; 2, 6 and 20 mg/kg i.p., dose-dependent", "result": "significantly reduced clinical arthritis scores"},
      {"measurement": "pannus formation, cartilage damage, bone resorption in histologic joint sections", "setting": "CIA mouse model [2]; CIA mice, FIG. 10", "result": "significantly decreased pannus formation, cartilage damage, and bone resorption"},
      {"measurement": "serum pyridinoline (PYD) levels", "setting": "CIA mouse model [2]; CIA mice", "result": "significantly lower"},
      {"measurement": "decrease in number of CD115+GR1- cells per spleen", "setting": "[3]; FIG. 14", "result": "more than 50%"},
      {"measurement": "CD115+GR1- monocytes in the spleen", "setting": "[3]; vs saline, FIG. 13", "result": "significant reduction"}
    ]},
    {"compound": "mCSF1R.506-GS-Fc: Mouse CSF1R ECD lacking the five C-terminal residues fused to GS-Fc; SEQ ID NO. 34", "values": [
      {"measurement": "monocyte marker-positive cells (F4/80+, CD11b+) in peripheral blood", "setting": "[4]", "result": "depletion of mouse monocytes from peripheral blood"}
    ]}
  ]
}
